In one data set the test system is Sin3B expression. To be noted: van Oevelen, et al. (2008) Mol. Cell. 32:359-370; cited from earlier work.
In data set [1] the test system is IL-6 expression in BxPc3 human PDAC cells. Nature of the data set: Quantitative RT-PCR for IL-6 mRNA expression in BxPc3 pancreatic cancer cells. It is filed as cell-based. The settings on record: BxPc3 cells treated 48 hours with 0.2 μM or 1 μM, relative to DMSO; FIG. 5. On the procedure:
(§1) Quantitative PCR for IL-1α and IL-6 mRNA expression in BxPc3 pancreatic cancer cell lines. BxPc3 has been treated 48 hours with vehicle DMSO, 0.2 μM (TSA 0.2) or 1 μM (TSA 1) of Trichostatin A. Sin3B and IL-1α mRNA expressions are relative to the expressions in DMSO (*p<0.05).
(§2) BxPc3 human pancreatic cancer cell lines are known in the art and available from American Type Culture Collection (ATCC, Manassas, Va.). Cells were cultured in RPMI, 10% FBS, Sodium Pyruvate, HEPES and Penicillin/[…]. The cultures were maintained in 5% CO2 at 37° C.
Extraction of total RNA from Pancreas and PDECs was performed using RNEASY mini kit (QIAGEN). For the pancreas, a piece was snap-frozen, ground, and the frozen powder was added to the RNEASY lysis buffer. Reverse transcription was done using Moloney murine leukemia virus polymerase and oligo(dT) primers. RT-PCR analyses were done using Tag DNA polymerase (5 Prime) and dNTP (Promega). Quantitative RT-PCR analyses were done using the SYBR Green method and the samples were run on the BIO-RAD I cycler MYIQ. Expression levels were normalized to GAPDH. Results were reported as relative to the abundance of mSin3B^+/− or mSin3^B+/− KRas^G12D transcripts. […]

The subject of data set [2] is IL-1α expression in BxPc3 human PDAC cells. As to the kind of experiment: Quantitative RT-PCR for IL-1α mRNA expression in BxPc3 pancreatic cancer cells. The settings on record: BxPc3 cells treated 48 hours with 0.2 μM or 1 μM, relative to DMSO; FIG. 5, p<0.05. It is filed as cell-based. As for the experimental part:
Quantitative PCR for Sin3B (*p<0.005) and IL-1α (*p<0.05) mRNA expression in BxPc3 pancreatic cancer cell lines. BxPc3 were infected with an empty vector or a shRNA against Sin3B (shSin3B). ShSin3B mRNA expressions are relative to the empty vector expression.
as §1, §2
DNA sequences encoding shRNAs for Sin3B (shSin3B) were selected and cloned into the PLKO retroviral vector (Open Biosystem). BxPc3 cells were infected with shSin3B or PLKO for 3 days and selected in puromycin for 5 days. The level of Sin3B knockdown by shSin3B was determined by quantitative RT-PCR.
Extraction of total RNA from Pancreas and PDECs was performed using RNEASY mini kit (QIAGEN). […] Quantitative RT-PCR analyses were done using the SYBR Green method and the samples were run on the BIO-RAD I cycler MYIQ. […]

Regarding “GCAAAGCGGUCCCUGUUUAUU (listed as RNA, chemistry not given here) [SEQ ID NO:6]”, the Sin3B expression result in the data set with Sin3B expression was “inhibit Sin3B expression”.

On to “GGCAAUGGGUCGUGCGAGAUU (chemistry not given here) [SEQ ID NO:7]”, for which the Sin3B expression result with Sin3B expression is “inhibit Sin3B expression”.

Take `CC(/C=C/C(=O)NO)=C\[C@@H](C)C(=O)c1ccc(N(C)C)cc1` [trichostatin A]: the “IL-6 expression after TSA treatment” value in data set [1] is reported as “not significantly affected”. The “IL-1α expression after TSA treatment” value in data set [2] was “specific and dose-dependent down-regulation”.

The values above are taken from US20140057961A1, “SIN3B COMPLEX INHIBITION AND USE THEREOF IN THE PREVENTION OF PRO-ONCOGENIC INFLAMMATION AND CANCER” (New York University, priority 2012, published 2014).
